The results in this text go back to patent publication US9334286B2, “Pharmacologically active compounds” (Cancer Research Technology Limited, priority 2012, dated 2016).

In the test the target is full length MPS1 (Homo sapiens (Human), UniProt P33981). Kind of test: Measurement of inhibition of MPS1 kinase (Caliper EZ reader, fluorescent labelled peptide H236). It is filed as biochemical. The settings on record: full length MPS1 12.5 nM or 3 nM, peptide H236 5 μM, ATP 10 μM, 60 min at room temperature. The method, then:
The reaction was carried out for 60 min at room temperature and stopped by the addition of buffer (10 μl) containing 20 mM EDTA, 0.05% (v/v) Brij-35, in 0.1M HEPES-buffered saline (Free acid, Sigma, UK). The plate was read on a Caliper EZ reader II (Caliper Life Sciences).
The reader provides a Software package (‘Reviewer’) which converts the peak heights into % conversion by measuring both product and substrate peak and also allows selection of control well which represent 0% and 100% inhibition respectively. The % inhibition of the compounds is calculated relative to the means of selected control wells. IC50s are determined by testing the compounds at a range of concentrations from 0.25 nM-100 μM. The % inhibitions at each concentration are then fitted to a 4 parameter logistic fit: y=(a+((b−a)/(1+((c/x^d)))) where a=asym min, b=asym max, c=IC50 and d=hill coefficient

Chain of full length MPS1 (P33981 whole entry): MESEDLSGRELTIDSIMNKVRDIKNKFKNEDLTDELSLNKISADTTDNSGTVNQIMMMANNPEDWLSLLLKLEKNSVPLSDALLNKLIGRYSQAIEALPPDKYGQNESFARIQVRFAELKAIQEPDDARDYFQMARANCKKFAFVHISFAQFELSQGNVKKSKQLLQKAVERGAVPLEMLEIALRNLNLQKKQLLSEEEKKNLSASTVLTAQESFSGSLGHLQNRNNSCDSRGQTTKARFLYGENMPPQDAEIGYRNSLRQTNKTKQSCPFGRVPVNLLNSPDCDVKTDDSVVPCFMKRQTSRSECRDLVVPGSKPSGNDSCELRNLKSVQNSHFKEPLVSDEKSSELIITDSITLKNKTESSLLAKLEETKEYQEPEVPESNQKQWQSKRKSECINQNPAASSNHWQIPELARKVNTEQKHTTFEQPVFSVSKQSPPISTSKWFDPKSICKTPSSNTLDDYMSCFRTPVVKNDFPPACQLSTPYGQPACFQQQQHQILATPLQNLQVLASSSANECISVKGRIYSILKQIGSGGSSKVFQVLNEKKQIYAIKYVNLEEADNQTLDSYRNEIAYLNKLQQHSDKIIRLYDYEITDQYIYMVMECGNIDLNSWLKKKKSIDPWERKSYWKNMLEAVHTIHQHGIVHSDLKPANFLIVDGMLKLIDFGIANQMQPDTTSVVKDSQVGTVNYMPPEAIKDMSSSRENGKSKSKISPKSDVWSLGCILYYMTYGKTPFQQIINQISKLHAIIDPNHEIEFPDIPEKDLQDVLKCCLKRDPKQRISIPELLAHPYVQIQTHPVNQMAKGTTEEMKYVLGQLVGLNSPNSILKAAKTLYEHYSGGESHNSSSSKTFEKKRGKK

The IC50 is the concentration at which inhibition is half-maximal. A lower IC50 goes with greater potency in that assay. With `Cc1ncc(-c2ccc(Nc3cc4cc(-c5cnn(CC(C)(C)O)c5)ccc4cn3)c(Cl)c2)n1C` [Example 42, 1-(4-(3-((2-Chloro-4-(1,2-dimethyl-1H-imidazol-5-yl)phenyl)amino)isoquinolin-6-yl)-1H-pyrazol-1-yl)-2-methylpropan-2-ol], it took 3 nM to reach half-maximal inhibition (IC50). In the case of `COc1cc(-c2cnc(C)n2C)ccc1Nc1cc2cc(-c3cnn(CC4(O)CCC4)c3)ccc2cn1` [Example 43, 1-((4-(3-((4-(1,2-Dimethyl-1H-imidazol-5-yl)-2-methoxyphenyl)amino)isoquinolin-6-yl)-1H-pyrazol-1-yl)methyl)cyclobutanol], the IC50 stood at 3 nM. Next, `COc1cc(-c2cnc(C)n2C)ccc1Nc1cc2cc(-c3cnn(CC(F)(F)F)c3)ccc2cn1` [Example 44, N-(4-(1,2-Dimethyl-1H-imidazol-5-yl)-2-methoxyphenyl)-6-(1-(2,2,2-trifluoroethyl)-1H-pyrazol-4-yl)isoquinolin-3-amine]: 4 nM; `CC(C)(O)Cn1cc(-c2ccc3cnc(Nc4ccc(N5CCOCC5)cc4Cl)cc3c2)cn1` [Example 45, 1-(4-(3-(2-Chloro-4-morpholinophenylamino)isoquinolin-6-yl)-1H-pyrazol-1-yl)-2-methylpropan-2-ol]: 45 nM. Next, `COc1cc(C(=O)N2CC(OC)C2)ccc1Nc1cc2cc(-c3cnn(CC(C)(C)O)c3)ccc2cn1` [Example 46, (4-(6-(1-(2-Hydroxy-2-methylpropyl)-1H-pyrazol-4-yl)isoquinolin-3-ylamino)-3-methoxy-phenyl)(3-methoxyazetidin-1-yl)methanone]: 2 nM; `Cc1ncc(-c2ccc(Nc3cc4cc(-c5cnn(CC(C)(C)O)c5)ccc4cn3)cc2)n1C` [Example 47, 1-(4-(3-(4-(1,2-Dimethyl-1H-imidazol-5-yl)phenylamino)isoquinolin-6-yl)-1H-pyrazol-1-yl)-2-methylpropan-2-ol]: 6 nM. Next, `CCOc1cc(-c2nncn2C)ccc1Nc1cc2cc(-c3cnn(CC(C)(C)O)c3)ccc2cn1` [Example 48, 1-(4-(3-(2-Ethoxy-4-(4-methyl-4H-1,2,4-triazol-3-yl)phenylamino)isoquinolin-6-yl)-1H-pyrazol-1-yl)-2-methylpropan-2-ol]: 2 nM. `COc1cc(C#N)ccc1Nc1cc2cc(-c3cnn(CC(C)(C)O)c3)ccc2cn1` [Example 49, 4-(6-(1-(2-Hydroxy-2-methylpropyl)-1H-pyrazol-4-yl)isoquinolin-3-ylamino)-3-methoxy-benzonitrile] came in with an IC50 of 11 nM. For `COc1c(Nc2cc3cc(-c4cnn(CC(C)(C)O)c4)ccc3cn2)ccc(-c2cnc(C)n2C)c1F` [Example 50, 1-(4-(3-(4-(1,2-Dimethyl-1H-imidazol-5-yl)-3-fluoro-2-methoxyphenylamino)isoquinolin-6-yl)-1H-pyrazol-1-yl)-2-methylpropan-2-ol] the value was 2 nM; for `COCc1c(-c2ccc(Nc3cc4cc(-c5cnn(CC(C)(C)O)c5)ccc4cn3)c(OC)c2)cnn1C` [Example 51, 1-(4-(3-(2-Methoxy-4-(5-(methoxymethyl)-1-methyl-1H-pyrazol-4-yl)phenylamino)isoquinolin-6-yl)-1H-pyrazol-1-yl)-2-methylpropan-2-ol], 4 nM. Next, `COc1cc(-c2cnn(C)c2)ccc1Nc1cc2cc(-c3cnn(CC(C)(C)O)c3)ccc2cn1` [Example 52, 1-(4-(3-(2-Methoxy-4-(1-methyl-1H-pyrazol-4-yl)phenylamino)isoquinolin-6-yl)-1H-pyrazol-1-yl)-2-methylpropan-2-ol]: 4 nM; `COc1cc(-c2cnn(C)c2C)ccc1Nc1cc2cc(-c3cnn(CC(C)(C)O)c3)ccc2cn1` [Example 53, 1-(4-(3-(4-(1,5-Dimethyl-1H-pyrazol-4-yl)-2-methoxyphenylamino)isoquinolin-6-yl)-1H-pyrazol-1-yl)-2-methylpropan-2-ol]: 4 nM; `COc1cc(F)ccc1Nc1cc2cc(-c3cnn(CC(C)(C)O)c3)ccc2cn1` [Example 54, 1-(4-(3-(4-Fluoro-2-methoxyphenylamino)isoquinolin-6-yl)-1H-pyrazol-1-yl)-2-methylpropan-2-ol]: 65 nM.

In the case of `COc1cc(-c2nnc3n2CCN(C(=O)OC(C)(C)C)C3)ccc1Nc1cc2cc(-c3cnn(CC(C)(C)O)c3)ccc2cn1` [Example 55, tert-Butyl 3-(4-(6-(1-(2-hydroxy-2-methylpropyl)-1H-pyrazol-4-yl)isoquinolin-3-ylamino)-3-methoxyphenyl)-5,6-dihydro-[1,2,4]triazolo[4,3-a]pyrazine-7(8H)-carboxylate], the half-maximal inhibitory concentration (IC50) is 3 nM. For `COc1nc(-c2cnc(C)n2C)ccc1Nc1cc2cc(-c3cnn(CC(C)(C)O)c3)ccc2cn1` [Example 56, 1-(4-(3-(6-(1,2-Dimethyl-1H-imidazol-5-yl)-2-methoxypyridin-3-ylamino)isoquinolin-6-yl)-1H-pyrazol-1-yl)-2-methylpropan-2-ol] the value was 3 nM; for `COc1cc(-c2cnc(C)n2C)cnc1Nc1cc2cc(-c3cnn(CC(C)(C)O)c3)ccc2cn1` [Example 57, 1-(4-(3-((5-(1,2-Dimethyl-1H-imidazol-5-yl)-3-methoxypyridin-2-yl)amino)isoquinolin-6-yl)-1H-pyrazol-1-yl)-2-methylpropan-2-ol], 3 nM; for `CC(C)(O)Cn1cc(-c2ccc3cnc(Nc4ccc(-c5cncnc5)cc4Cl)cc3c2)cn1` [Example 58, 1-(4-(3-((2-Chloro-4-(pyrimidin-5-yl)phenyl)amino)isoquinolin-6-yl)-1H-pyrazol-1-yl)-2-methylpropan-2-ol], 5 nM. `CC(C)(O)Cn1cc(-c2ccc3cnc(Nc4ccc(S(C)(=O)=O)cc4Cl)cc3c2)cn1` [Example 59, 1-(4-(3-((2-Chloro-4-(methylsulfonyl)phenyl)amino)isoquinolin-6-yl)-1H-pyrazol-1-yl)-2-methylpropan-2-ol] displayed an IC50 of 4 nM.

For the molecule `COc1cc(C(=O)N(C)C)ccc1Nc1cc2cc(-c3cnn(CC(C)(C)O)c3)ccc2cn1` [Example 60, 4-((6-(1-(2-Hydroxy-2-methylpropyl)-1H-pyrazol-4-yl)isoquinolin-3-yl)amino)-3-methoxy-N,N-dimethylbenzamide], the half-inhibitory concentration (IC50) came to 2 nM. For `COc1cc(C(=O)NCCO)ccc1Nc1cc2cc(-c3cnn(CC(C)(C)O)c3)ccc2cn1` [Example 61, 4-((6-(1-(2-Hydroxy-2-methylpropyl)-1H-pyrazol-4-yl)isoquinolin-3-yl)amino)-N-(2-hydroxyethyl)-3-methoxybenzamide] the value was 2 nM; for `COCCNC(=O)c1ccc(Nc2cc3cc(-c4cnn(CC(C)(C)O)c4)ccc3cn2)c(OC)c1` [Example 62, 4-((6-(1-(2-Hydroxy-2-methylpropyl)-1H-pyrazol-4-yl)isoquinolin-3-yl)amino)-3-methoxy-N-(2-methoxyethyl)benzamide], 3 nM; for `COCc1ncc(-c2ccc(Nc3cc4cc(-c5cnn(CC(C)(C)O)c5)ccc4cn3)c(OC)c2)n1C` [Example 63, 1-(4-(3-((2-Methoxy-4-(2-(methoxymethyl)-1-methyl-1H-imidazol-5-yl)phenyl)amino)-isoquinolin-6-yl)-1H-pyrazol-1-yl)-2-methylpropan-2-ol], 1 nM.
